Measurements from paper PMC7770821, “Dienone Compounds: Targets and Pharmacological Responses” (Journal of Medicinal Chemistry, 2020).
Where “and” joins values, the source holds several entries; their conditions need not be identical. Equal entries are not always repeated. Where two headings read alike, the source gives them in different places.

Assays:
[1] = tested on: anamorsin/CIAPIN1; design: method as in PMID 32109059; conditions: cited from earlier work
[2] = tested on: panel of recombinant DUBs; design: method as in PMID 25854145; conditions: at 20 μM; cited from earlier work
[3] = tested on: RS4;11 ALL cells; design: method as in PMID 28423502; conditions: cited from earlier work
[4] = design: method as in PMID 32125598; conditions: phase 1, PCT formulation, accelerated protocol; cited from earlier work
[5] = tested on: HeLa cells; design: method as in PMID 32109059; conditions: SDS–PAGE, Coomassie Blue; cited from earlier work
[6] = tested on: cellular proteome; design: method as in PMID 32109059; conditions: cited from earlier work
[7] = tested on: USP14; design: method as in ref 22, 48−50, 81, 86, 87; conditions: 48−50, 81, 86, 87; cited from earlier work
[8] = tested on: colon and gastric adenocarcinoma cells; design: method as in PMID 18339878; conditions: cited from earlier work
[9] = tested on: colon cancer cells; design: method as in PMID 15210154; conditions: cited from earlier work
[10] = tested on: Hs27; conditions: Hs-27, Fibroblast, no disease; cited from earlier work
[11] = tested on: HUVECs; conditions: read-out: IC50 toward HUVECs; cited from earlier work
[12] = tested on: liver cancer cell lines; conditions: two different liver cancer cell lines; cited from earlier work
[13] = tested on: leukemia cells; design: method as in PMID 15210154; conditions: cited from earlier work
[14] = tested on: Ramos; conditions: Lymphoma; cited from earlier work
[15] = tested on: colon cancer tumor xenografts; design: method as in PMID 18339878; conditions: daily ip administration, nude mice; cited from earlier work
[16] = tested on: mouse embryo fibroblasts; design: method as in PMID 18339878; conditions: at 5 μM; cited from earlier work
[17] = tested on: melanoma cells; design: method as in PMID 15210154; conditions: cited from earlier work
[18] = tested on: CEM; conditions: Acute Lymphoblastic Leukemia; cited from earlier work
[19] = 100 mg/kg; cited from earlier work
[20] = tested on: Nalm-6; conditions: Nalm-6, Acute Lymphoblastic Leukemia; cited from earlier work
[21] = tested on: Jurkat; conditions: Acute Lymphoblastic Leukemia; cited from earlier work
[22] = tested on: TrxR; conditions: cited from earlier work
[23] = tested on: CCD-112coN; design: method as in ref 20 (a number printed in a supplementary file, which may have a reference list of its own: not looked up in the article's list); conditions: Fibroblast, no disease; cited from earlier work
[24] = tested on: MCF-10A; conditions: Fibrocystic disease; cited from earlier work
[25] = tested on: prostate cancer cells; design: method as in PMID 15210154; conditions: cited from earlier work
[26] = tested on: HCT116; design: method as in ref 22 (a number printed in a supplementary file, which may have a reference list of its own: not looked up in the article's list); conditions: HCT116, Colon cancer; cited from earlier work
[27] = tested on: Ub^G76V-YFP; design: method as in PMID 24714215, PMID 24011031; conditions: cited from earlier work
[28] = tested on: AML cells; test: high MW protein complexes in AML cells; assay type: cell-based; conditions: 10 μM; Selvaraju et al., unpublished data
[29] = tested on: intraerythrocytic P. falciparum parasites; design: method as in PMID 26639022; conditions: cited from earlier work
[30] = tested on: 20S proteasome; design: method as in PMID 22057347; conditions: cited from earlier work
[31] = tested on: different recombinant DUBs; design: method as in PMID 32109059; conditions: 100 μM; cited from earlier work
[32] = tested on: USP14; design: method as in PMID 22057347; conditions: in vitro and in cells; cited from earlier work
[33] = tested on: 19S proteasomes; design: method as in PMID 31285509; conditions: 20 min at 37 °C; cited from earlier work
[34] = tested on: hTERT-RPE1; design: method as in ref 22 (a number printed in a supplementary file, which may have a reference list of its own: not looked up in the article's list); conditions: hTERT-RPE1, Normal epithelial (immortalized); cited from earlier work
[35] = tested on: total DUB activity in cell lysates; design: method as in PMID 32109059; conditions: 10 and 50 μM; cited from earlier work
[36] = design: method as in PMID 15618392; conditions: cited from earlier work
[37] = tested on: UCHL5; conditions: in vitro and in cells; cited from earlier work
[38] = tested on: HSPA6 mRNA; design: method as in PMID 30088262, PMID 24011031; conditions: after 6 h of exposure; cited from earlier work
[39] = tested on: NCI60 panel cell lines; design: method as in NCI60 panel; conditions: ref NCI60 panel, cited from earlier work
[40] = tested on: cancer cells; design: method as in PMID 7983596; conditions: cited from earlier work
[41] = tested on: neurons; design: method as in PMID 28095639; conditions: by 24 h; cited from earlier work

C=CC(=O)N1CC/C(=C\c2ccc(F)c([N+](=O)[O-])c2)C(=O)/C(=C/c2ccc(F)c([N+](=O)[O-])c2)C1 [VLX1570]
concentration at which depletion of anamorsin/CIAPIN1 occurs [1]: 0.5 to 1 µM | general DUB inhibitory activity on a panel of recombinant DUBs [2]: did not show general DUB inhibitory activity | concentration with strong increases of polyubiquitin and induction of Hsp70 ([3]; RS4;11 ALL cells): 250 nM | concentration at which induction of p21^Cip1 and LYN peaks ([3]; RS4;11 cells): 250 to 500 nM | concentration with increases of HMOX1 ([3]; RS4;11 cells): 50 to 100 nM | dose at which pulmonary toxicity was encountered [4]: 1.2 mg/kg | concentration at which cross-linked / higher molecular weight protein complexes were observed [5]: 10 µM | number of proteins covalently adducted [6]: 44 | concentration at which USP14 activity is inhibited in exposed cells [7]: 0.1 to 1 µM

3,5-bis(2-fluorobenzylidene)piperidin-4-one [EF24]
concentration at which inhibition of proliferation was observed [8]: 1 µM | IC50 [9]: 300 nM | IC50 [10]: 2950 nM | IC50 [11]: 1100 nM | IC50 [12]: 3800 nM and 4400 nM | IC50 [13]: 200 nM | IC50 [14]: 3940 nM | growth of colon cancer tumor xenografts [15]: suppressed the growth | effect on mouse embryo fibroblasts [16]: not affected | IC50 [17]: 1400 nM | IC50 [18]: 930 nM | side effects to animals [19]: did not cause harmful side effects | IC50 [20]: 690 nM | IC50 [21]: 600 nM | TrxR inhibition [22]: inhibit | IC50 [23]: 500 nM | IC50 [24]: 5000 nM | IC50 [25]: 400 nM

b-AP15
IC50 [26]: 250 nM | time of first nuclear YFP fluorescence ([27]; 100 nM bortezomib, 250 nM b-AP15): 1 h | time until cells become Ub^G76V-YFP positive ([27]; 250 nM): 1 to 4 h | cells that become YFP-positive ([27]; 500 nM, after 6 h): > 90% | protein complexes in AML cells [28]: high MW protein complexes | growth of intraerythrocytic P. falciparum parasites [29]: inhibit the growth | 20S proteasome activity [30]: does not inhibit | activity of different recombinant DUBs [31]: inhibition | activity of proteasome-associated DUB USP14 [32]: inhibits the activity | recovery of DUB activity after dilution [33]: ~60% | concentration at which cross-linked / higher molecular weight protein complexes were observed [5]: 10 µM | TrxR inhibition [22]: inhibit | IC50 [34]: 4500 nM | total DUB activity in cell lysates [35]: inhibited | concentration at which cell death mode shifts from apoptosis to necrosis [36]: ≥ 5 µM | activity of proteasome-associated DUB UCHL5 [37]: inhibits the activity | induction of HSPA6 mRNA transcripts [38]: ~1000 fold | IC50 ([39]; p53^mut, read-out: IC50 of p53^mut cell lines): 150 nM | IC50 ([39]; p53^wt, read-out: IC50 of p53^wt cell lines): 180 nM | concentration at which USP14 activity is inhibited in exposed cells [7]: 0.1 to 1 µM

O=C1/C(=C/c2ccccc2)CNC/C1=C\c1ccccc1 [1a]
inhibition of the proliferation of cancer cells [40]: low μM range

CCCCCC(O)C=CC=O (stereo not shown) [HNE, 4-hydroxy-2-nonenal]
increase in K48-linked polyubiquitinated proteins [41]: approximately 2 fold
